Laboratory results from patent US20150111864A1, “CRYSTALLINE FORM OF A BETA-LACTAMASE INHIBITOR” (Cubist Pharmaceuticals, Inc., priority 2013, published 2015).
Entries after “also recorded” stand apart in the source; their conditions may differ. Structures can show the parent of a compound that is named as a salt.

Key:
Assay type in all cases: physicochemical
[1] = Gravimetric Vapour Sorption (GVS)
Protocol: Sorption isotherms were obtained using a SMS DVS Intrinsic moisture sorption analyser, controlled by DVS Intrinsic Control software v1.0.1.2 (or v 1.0.1.3). The sample temperature was maintained at 25° C. by the instrument controls. The humidity was controlled by mixing streams of dry and wet nitrogen, with a total flow rate of 200 ml/min The relative humidity was measured by a calibrated Rotronic probe (dynamic range of 1.0-100% RH), located near the sample. The weight change, (mass relaxation) of the sample as a function of % RH was constantly monitored by the microbalance (accuracy±0.005 mg). Typically 5-20 mg of sample was placed in a tared mesh stainless steel basket under ambient conditions. The sample was loaded and unloaded at 40% RH and 25° C. (typical room conditions). A moisture sorption isotherm was performed as outlined below (2 scans giving 1 complete cycle or 4 scans giving 2 complete cycles). The standard isotherm was performed at 25° C. at 10% RH intervals over a 0-90% RH range. Data analysis was undertaken in Microsoft Excel using DVS Analysis Suite v6.2 (or 6.1 or 6.0). Table 2 details the method parameters for SMS DVS intrinsic experiments.
The sample was recovered after completion of the isotherm and re-analysed by XRPD.

[2] = Static stability / storage of solid forms, checked by XRPD
Protocol: The samples were analysed by XRPD and, where appropriate, by DSC, TGA, VT-XRPD and ^1H NMR. Static stability at 25° C./96% RH and 40° C./75% RH was also investigated.
This material was analysed by XRPD TGA, GVS, and mDSC. Static stability experiments were carried out under ambient conditions and also at 25° C./96% RH and 40° C./75% RH. Finally this material was used as input material for the polymorphism screen (see Table 6).

[3] = XRPD after ball milling
[4] = Aqueous solubility
[5] = Static stability / storage of solid forms, checked by XRPD; remark: listed apart in the source
[6] = Drying of solid forms, form checked by XRPD; conditions: for Filtration and air drying for 30 min: air drying 30 min

NCCCc1nnc([C@@H]2CC[C@@H]3CN2C(=O)N3OS(=O)(=O)O)o1 [Amorphous Solid, (2S,5R)-2-(5-(3-aminopropyl)-1,3,4-oxadiazol-2-yl)-7-oxo-1,6-diazabicyclo[3.2.1]octan-6-yl hydrogen sulfate]
GVS (water uptake, in words) ([1]; 25° C., resulting solid was Form 5 by XRPD): Rapid uptake of water from 40-60%
Static Stability - 25° C./96% RH: time to conversion to Form 5 ([2]; 25° C./96% RH): Conversion to Form 5 within 15 minutes
Static Stability - 40° C./75% RH: time to conversion to Form 5 ([2]; 40° C./75% RH): Conversion to Form 5 within 15 minutes
Static Stability - ambient ([2]; ambient conditions, XRPD): Form 5 peaks observed after 36 days (although

NCCCc1nnc([C@@H]2CC[C@@H]3CN2C(=O)N3OS(=O)(=O)O)o1 [Form 5, (2S,5R)-2-(5-(3-aminopropyl)-1,3,4-oxadiazol-2-yl)-7-oxo-1,6-diazabicyclo[3.2.1]octan-6-yl hydrogen sulfate]
XRPD after ball milling (20 min) [3]: No change in form but loss
Aqueous solubility (24 hrs at 25°): solid form of residue [4]: Residue was Form 5
Aqueous solubility (24 hrs at 25°) ([4]; pH 4.85): 13.1 mg/ml (pH 4.85).
Storage in vacuum oven at 25° C. ([5]; 25° C., after 5 days): No change in form or crystallinity
Storage in vacuum oven at 50° C. ([5]; 50° C., after 24 h): Sample almost completely amorphous
XRPD post GVS ([1]; after GVS isotherm): Form 5. No change in crystallinity
GVS Mass change ([1]; from 0-90% RH, 25° C.): Mass change of 9.73% from 0-90% RH
Stability relative to the amorphous solid form and other crystalline forms [2]: more stable than other crystalline forms; also recorded: improved stability
Change of XRPD pattern over time (FIG. 2) ([2]; 25° C. and 40% relative humidity, t=0 and t=2 days): little to no change
Storage at 25° C./96% RH for 1 week ([2]; 25° C./96% RH, 1 week): No change in form or crystallinity
Storage at 40° C./75% RH for 1 week ([2]; 40° C./75% RH, 1 week): No change in form or crystallinity
Relative stability of crystalline forms at ambient conditions ([2]; ambient conditions (25° C. and 40% RH)): most stable crystalline form

NCCCc1nnc([C@@H]2CC[C@@H]3CN2C(=O)N3OS(=O)(=O)O)o1 [Form 6, (2S,5R)-2-(5-(3-aminopropyl)-1,3,4-oxadiazol-2-yl)-7-oxo-1,6-diazabicyclo[3.2.1]octan-6-yl hydrogen sulfate]
Filtration and air drying for 30 min [6]: No change in form
Storage at 25° C./96% RH for 24 h ([2]; 25° C./96% RH): Conversion to Form 5
Storage at 40° C./75% RH for 24 h ([2]; 40° C./75% RH): Conversion to Form 5

NCCCc1nnc([C@@H]2CC[C@@H]3CN2C(=O)N3OS(=O)(=O)O)o1 [Form 7, (2S,5R)-2-(5-(3-aminopropyl)-1,3,4-oxadiazol-2-yl)-7-oxo-1,6-diazabicyclo[3.2.1]octan-6-yl hydrogen sulfate]
Filtration and air drying for 30 min [6]: No change in form
Storage at 25° C./96% RH for 24 h ([2]; 25° C./96% RH): Conversion to Form 5
Storage at 40° C./75% RH for 24 h ([2]; 40° C./75% RH): Conversion to Form 5
Storage at ambient conditions for 24 h [2]: No change in form

NCCCc1nnc([C@@H]2CC[C@@H]3CN2C(=O)N3OS(=O)(=O)O)o1 [Form 9, (2S,5R)-2-(5-(3-aminopropyl)-1,3,4-oxadiazol-2-yl)-7-oxo-1,6-diazabicyclo[3.2.1]octan-6-yl hydrogen sulfate]
Drying in at 5 mmHg/25° C. overnight ([6]; 5 mmHg, 25° C., overnight): No change in form
Storage at 25° C./96% RH for 24 h ([2]; 25° C./96% RH): Conversion to Form 5
Storage at 40° C./75% RH for 24 h ([2]; 40° C./75% RH): Conversion to Form 5
Storage at ambient conditions for 24 h [2]: No change in form
